Measured values from BindingDB's records for doi:10.1021/jm00087a007 (Uppsala University, 1992).

What was measured:
[1] = Compound was evaluated for its binding affinity against Muscarinic acetylcholine receptor M1 in guinea pig cerebral cortex using (-)-[3H]-QNB as radioligand
[2] = Compound was evaluated for its binding affinity against muscarinic acetylcholine receptor M2 in guinea pig heart using (-)-[3H]-QNB as radioligand
[3] = as above; remark: listed apart in the source
[4] = Compound was evaluated for its binding affinity against Muscarinic acetylcholine receptor M1 in guinea pig cerebral cortex using (-)-[3H]-QNB as radioligand; remark: listed apart in the source
[5] = Compound was evaluated for its binding affinity against muscarinic acetylcholine receptor M2 in guinea pig heart using (-)-[3H]-QNB as radioligand; remark: listed apart in the source

SMILES	Ki [1] [µM]	Ki [2] [µM]	Ki [3] [µM]	Ki [4] [µM]	Ki [5] [µM]
CC1(C)OCC2(CN3CCC2CC3)O1 (stereo unspecified)	9.3	30			
C[C@@H]1OCC2(CN3CCC2CC3)O1 (stereo partly drawn) [(2'S)-2'-methylspiro[4-azabicyclo[2.2.2]octane-2,4'-[1,3]dioxolane]]	6.3		> 21		
C1OCC2(CN3CCC2CC3)O1 (stereo unspecified)	19	50			
C[C@H]1CCC2(CN3CCC2CC3)O1 (stereo partly specified)	15		15		
C[C@H]1CC2(CO1)CN1CCC2CC1 (stereo partly specified)				6.5	> 20
C[C@H]1OCC2(CN3CCC2CC3)O1 (stereo partly drawn) [(2'S)-2'-methylspiro[4-azabicyclo[2.2.2]octane-2,4'-[1,3]dioxolane]]	2.9	9.7			
C[C@@H]1CCC2(CN3CCC2CC3)O1 (stereo partly specified)				20	> 25
C[C@@H]1CC2(CO1)CN1CCC2CC1 (stereo partly specified)	6.3		> 20		
